From patent US12157730B2, “Heteroaryl derivative, method for producing same, and pharmaceutical composition comprising same as effective component” (VORONOI INC., priority 2019, dated 2024)

Target: T1, Ba/F3 cell EGFR Exon20 ins NPH (Homo sapiens, UniProt P00533, INS773NPH)
T1 construct: expressed in transfected cells; host or cells: Ba/F3
Experiment: Ba/F3 cell proliferation suppression, EGFR Exon20 ins NPH
Format: cell-based
Details: GI50 class; Ba/F3 cell line with NPH inserted at Exon20 of EGFR; 72 hours
Method in brief: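 Cells were seeded 24 h before dosing and then treated for 72 hours with compound at final concentrations of 0.3 nM to 50 um. Live cells were measured by CellTiter-Glo luminescence, and GI50 values were derived from growth ratio relative to control across three repeats.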

Row | Structure (SMILES) | Ba/F3 (NPH) Activity
1 | C=CC(=O)Nc1cc(Nc2cc(N3OCC[C@@H]3c3ccc(Cl)cc3F)ncn2)c(OC)cc1N1CCC(N2CCN(CC)CC2)CC1 [compound 409, N-(5-((6-((R)-3-(4-chloro-2-fluorophenyl)isoxazolidine-2-yl)pyrimidine-4-yl)amino)-2-(4-(4-ethylpiperazine-1-yl)piperidine-1-yl)-4-methoxyphenyl) acrylamide] | A (GI50 < 50 nM)
2 | C=CC(=O)Nc1cc(Nc2cc(N3OCC[C@@H]3c3cccc(Cl)c3Cl)ncn2)c(OC)cc1N1CCC(N2CCOCC2)CC1 [compound 521, N-(5-((6-((R)-3-(2,3-dichlorophenyl)isoxazolidine-2-yl)pyrimidine-4-yl)amino)-4-methoxy-2-(4-morpholinopiperidine-1-yl)phenyl)acrylamide] | A (GI50 < 50 nM)
3 | C=CC(=O)Nc1cc(Nc2cc(N3OCC[C@@H]3c3ccc(F)c(F)c3)ncn2)c(OC)cc1N1CCC(N2CCN(CCC)CC2)CC1 [compound 547, N-(5-((6-((R)-3-(3,4-difluorophenyl)isoxazolidine-2-yl)pyrimidine-4-yl)amino)-4-methoxy-2-(4-(4-propylpiperazine-1-yl)piperidine-1-yl)phenyl) acrylamide] | A (GI50 < 50 nM)
4 | C=CC(=O)Nc1cc(Nc2cc(N3OCC[C@@H]3c3ccc(F)cc3F)ncn2)c(OC)cc1N1C[C@@H]2C[C@H]1CN2CC [compound 354, N-(5-((6-((R)-3-(2,4-difluorophenyl)isoxazolidine-2-yl)pyrimidine-4-yl)amino)-2-((1S,4S)-5-ethyl-2,5-diazabicyclo[2.2.1]heptane-2-yl)-4-methoxyphenyl) acrylamide] | A (GI50 < 50 nM)
5 | C=CC(=O)Nc1cc(Nc2cc(N3OCC[C@@H]3c3ccc(F)c(Cl)c3F)ncn2)c(OC)cc1N1CCC(N2CCN(C3CCC3)CC2)CC1 [Example 193, N-(5-((6-((R)-3-(3-chloro-2,4-difluorophenyl)isoxazolidine-2-yl)pyrimidine-4-yl)amino)-2-(4-(4-cyclobutylpiperazine-1-yl)piperidine-1-yl)-4-methoxyphenyl) acrylamide] | A (GI50 < 50 nM)
6 | C=CC(=O)Nc1cc(Nc2cc(N3OCC[C@@H]3c3cccc(Cl)c3)ncn2)c(OC)cc1N1CCC(N2CCN(C(C)C)CC2)CC1 [compound 461, N-(5-((6-((R)-3-(3-chlorophenyl)isoxazolidine-2-yl)pyrimidine-4-yl)amino)-2-(4-(4-isopropylpiperazine-1-yl)piperidine-1-yl)-4-methoxyphenyl) acrylamide] | A (GI50 < 50 nM)
7 | C=CC(=O)Nc1cc(Nc2cc(N3OCC[C@@H]3Cc3ccccc3)ncn2)c(OC)cc1N(C)CCOC [compound 953, N-(5-((6-((S)-3-benzylisoxazolidine-2-yl)pyrimidine-4-yl)amino)-4-methoxy-2-((2-methoxyethyl) (methyl)amino)phenyl) acrylamide] | B (50 nM ≤ GI50 < 500 nM)
8 | C=CC(=O)Nc1cc(Nc2cc(N3OCC[C@@H]3c3cccc(Cl)c3Cl)ncn2)c(OC)cc1N1CCN(CC2CC2)CC1 [compound 567, N-(2-(4-(cyclopropylmethyl)piperazine-1-yl)-5-((6-((R)-3-(2,3-dichlorophenyl)isoxazolidine-2-yl)pyrimidine-4-yl)amino)-4-methoxyphenyl) acrylamide] | A (GI50 < 50 nM)
9 | C=CC(=O)Nc1cc(Nc2cc(N3OCC[C@@H]3c3cc(F)cc(F)c3)ncn2)c(OC)cc1N1CCN(C2COC2)CC1 [Example 273, N-(5-((6-((R)-3-(3,5-difluorophenyl)isoxazolidine-2-yl)pyrimidine-4-yl)amino)-4-methoxy-2-(4-(oxetane-3-yl)piperazine-1-yl)phenyl)acrylamide] | B (50 nM ≤ GI50 < 500 nM)
10 | C=CC(=O)Nc1cc(Nc2cc(N3OCC[C@@H]3c3cccc(C)c3F)ncn2)c(OC)cc1N1CCC(N2C[C@H](C)N(C3CC3)C[C@@H]2C)CC1 [Example 123, N-(2-(4-((2S,5S)-4-cyclopropyl-2,5-dimethylpiperazine-1-yl)piperidine-1-yl)-5-((6-((R)-3-(2-fluoro-3-methylphenyl)isoxazolidine-2-yl)pyrimidine-4-yl)amino)-4-methoxyphenyl) acrylamide] | A (GI50 < 50 nM)
11 | C=CC(=O)Nc1cc(Nc2cc(N3OCC[C@@H]3Cc3cccc(F)c3C)ncn2)c(OC)cc1N1CCN(CC)CC1 [compound 1003, N-(2-(4-ethylpiperazine-1-yl)-5-((6-(S)-(3-(3-fluoro-2-methylbenzyl)isoxazolidine-2-yl)pyrimidine-4-yl)amino)-4-methoxyphenyl) acrylamide] | A (GI50 < 50 nM)
12 | C=CC(=O)Nc1cc(Nc2cc(N3OCC[C@@H]3c3cc(F)cc(F)c3)ncn2)c(OC)cc1N1CCC(N2CCN(C)C[C@H]2C)CC1 [compound 761, N-(5-((6-((R)-3-(3,5-difluorophenyl)isoxazolidine-2-yl)pyrimidine-4-yl)amino)-2-(4-((R)-2,4-dimethylpiperazine-1-yl)piperidine-1-yl)-4-methoxyphenyl) acrylamide] | A (GI50 < 50 nM)
13 | C=CC(=O)Nc1cc(Nc2cc(N3OCC[C@@H]3Cc3cccc(Cl)c3OC)ncn2)c(OC)cc1N1CCC(N2C[C@H]3C[C@@H]2CO3)CC1 [compound 1055, N-(2-(4-((1R,4R)-2-oxa-5-azabicyclo [2.2.1]heptane-5-yl)piperidine-1-yl)-5-((6-((S)-3-(3-chloro-2-methoxybenzyl)isoxazolidine-2-yl)pyrimidine-4-yl)amino)-4-methoxyphenyl) acrylamide] | A (GI50 < 50 nM)
14 | C=CC(=O)Nc1cc(Nc2cc(N3OCC[C@@H]3Cc3cccc(F)c3)ncn2)c(OC)cc1N1CCC(N2C[C@H]3C[C@@H]2CO3)CC1 [compound 998, N-(2-(4-((1R,4R)-2-oxa-5-azabicyclo [2.2.1]heptane-5-yl)piperidine-1-yl)-5-((6-((S)-3-(3-fluorobenzyl)isoxazolidine-2-yl)pyrimidine-4-yl)amino)-4-methoxyphenyl) acrylamide] | A (GI50 < 50 nM)
15 | C=CC(=O)Nc1cc(Nc2cc(N3OCC[C@@H]3c3cccc4ccccc34)ncn2)c(OC)cc1N1CCC(N2CCN(C3COC3)CC2)CC1 [Example 198, N-(4-methoxy-5-((6-((R)-3-(naphthalene-1-yl)isoxazolidine-2-yl)pyrimidine-4-yl)amino)-2-(4-(4-(oxetane-3-yl)piperazine-1-yl)piperidine-1-yl)phenyl)acrylamide] | A (GI50 < 50 nM)
16 | C=CC(=O)Nc1cc(Nc2cc(N3OCC[C@@H]3Cc3ccccc3)ncn2)c(OC)cc1N1CCC(N2CCN(C3CC3)CC2)CC1 [compound 955, N-(5-((6-((S)-3-benzylisoxazolidine-2-yl)pyrimidine-4-yl)amino)-2-(4-(4-cyclopropylpiperazine-1-yl)piperidine-1-yl)-4-methoxyphenyl) acrylamide] | A (GI50 < 50 nM)
17 | C=CC(=O)Nc1cc(Nc2cc(N3OCC[C@@H]3c3cc(F)cc(F)c3)ncn2)c(OC)cc1OCCC(C)(C)OC [compound 495, N-(5-((6-((R)-3-(3,5-difluorophenyl)isoxazolidine-2-yl)pyrimidine-4-yl)amino)-4-methoxy-2-(3-methoxy-3-methylbutoxy)phenyl) acrylamide] | A (GI50 < 50 nM)
18 | C=CC(=O)Nc1cc(Nc2cc(N3OCC[C@@H]3c3c(F)ccc(F)c3F)ncn2)c(OC)cc1N1CCC(N2CCO[C@H](C)C2)CC1 [compound 646, N-(4-methoxy-2-(4-((R)-2-methylmorpholino)piperidine-1-yl)-5-((6-((R)-3-(2,3,6-trifluorophenyl)isoxazolidine-2-yl)pyrimidine-4-yl)amino)phenyl)acrylamide] | A (GI50 < 50 nM)
19 | C=CC(=O)Nc1cc(Nc2cc(N3OCC[C@H]3Cc3cccnc3)ncn2)c(OC)cc1N1CCC(N2C[C@@H]3C[C@H]2CO3)CC1 [compound 989, N-(2-(4-((1S,4S)-2-oxa-5-azabicyclo [2.2.1]heptane-5-yl)piperidine-1-yl)-4-methoxy-5-((6-((R)-3-(pyridine-3-ylmethyl)isoxazolidine-2-yl)pyrimidine-4-yl)amino)phenyl)acrylamide] | B (50 nM ≤ GI50 < 500 nM)
20 | C=CC(=O)Nc1cc(Nc2cc(N3OCC[C@@H]3c3cccc(F)c3Cl)ncn2)c(OC)cc1N1CCC(N2CCOCC2)CC1 [compound 598, N-(5-((6-((R)-3-(2-chloro-3-fluorophenyl)isoxazolidine-2-yl)pyrimidine-4-yl)amino)-4-methoxy-2-(4-morpholinopiperidine-1-yl)phenyl)acrylamide] | A (GI50 < 50 nM)
21 | C=CC(=O)Nc1cc(Nc2cc(N3OCC[C@@H]3c3ccccc3)ncn2)c(OC)cc1N1CCC(N2C[C@@H]3C[C@H]2CO3)CC1 [Example 54, N-(2-(4-((1S,4S)-2-oxa-5-oxabicyclo[2.2.1]heptane-5-yl)piperidine-1-yl)-4-methoxy-5-((6-((R)-3-phenylisoxazolidne-2-yl)pyrimidine-4-yl)amino)phenyl) acrylamide] | A (GI50 < 50 nM)
22 | C=CC(=O)Nc1cc(Nc2cc(N3OCC[C@@H]3c3cccc(C(F)(F)F)c3)ncn2)c(OC)cc1N1CCC(N2C[C@H]3C[C@@H]2CO3)CC1 [compound 943, N-(2-(4-((1R,4R)-2-oxa-5-azabicyclo [2.2.1]heptane-5-yl)piperidine-1-yl)-4-methoxy-5-((6-((R)-3-(3-(trifluoromethyl)phenyl)isoxazolidine-2-yl)pyrimidine-4-yl)amino)phenyl) acrylamide] | A (GI50 < 50 nM)
23 | C=CC(=O)Nc1cc(Nc2cc(N3OCC[C@@H]3Cc3cccc(Cl)c3C)ncn2)c(OC)cc1N1CCC(N2CCN(C3CC3)[C@@H](C)C2)CC1 [compound 1028, N-(5-((6-((S)-3-(3-chloro-2-methylbenzyl)isoxazolidine-2-yl)pyrimidine-4-yl)amino)-2-(4-((S)-4-cyclopropyl-3-methylpiperazine-1-yl)piperidine-1-yl)-4-methoxyphenyl) acrylamide] | A (GI50 < 50 nM)
